Measured values from article PMC7060200, “Selective Binding of HSC70 and its Co-Chaperones to Structural Hotspots on CFTR” (Scientific Reports, 2020).
Entries after “also recorded” stand apart in the source; their conditions may differ. Ends that are not written are not given here.

Assays:
HSC70 [1] = target: T1, HSC70 (Homo sapiens, UniProt P11142); experiment: Competition ELISA: soluble peptide vs HSC70 binding to immobilized 1097-L; details: for competition of HSC70 binding to immobilized 1097-L (in words): 1 μM HSC70, soluble peptide up to 100 μM
T1 construct: made in house
Description: (§1) HSC70, DJA1 and DJA2 were purified as His-tagged proteins, as described. HSC70 was also amplified by PCR with an N-terminal FLAG tag, inserted into pPROEXHTa (Invitrogen) and purified as described. HSC70 was stored in 100 mM KOAc, 20 mM HEPES-KOH pH 7.5, 5 mM MgOAC2 (buffer G), DJA1 and DJA2 in 500 mM NaCl, 20 mM HEPES-KOH pH 7.5, 5 mM MgOAC2 (buffer H). Avi-tagged CFTR NBD1 was purified as described.
(§2) The CFTR peptide library was designed as 15-mers with 10-residue overlaps covering the cytosolic sequences as in Fig. 1a and Supplemental Table S1. Synthetic peptides (Mimotopes, PepSet purity) contained an N-terminal biotin followed by linker sequence GSGS and the 15-mer sequence. […] Peptides were reconstituted in DMSO or water.
(§3) For peptide binding, streptavidin-coated black 96-well plates (Nunc Maxisorp, ThermoFisher) were pre-rinsed with PBS containing 0.05% Tween-20 (PBST), and 5 µM biotinylated peptides in 100 µl PBS were bound overnnight at 4 °C with agitation. Plates were washed with PBST and blocked with PBST containing 0.5% bovine serum albumin (BSA) for 1 h. After removal of blocking solution, 100 µl reactions containing chaperones at indicated concentrations were bound for 45 min at room temperature with agitation. HSC70 reactions were in buffer G containing 1 mM ATP, DJA1 and DJA2 reactions were in buffer H. For competition assays, chaperones and peptides were mixed at indicated concentrations immediately before the reactions were added to the plates. For detections, the plates were washed in PBST and 5 μM His-Probe-HRP conjugate (ThermoFisher) in 100 μL PBST added for 15 min with agitation. After washing in PBST, plates were developed using Amplex Red (ThermoFisher) according to manufacturer’s instructions, in a fluorescence plate reader (Tecan M1000).
(§4) Affinities were determined separately from binding curves and from competition curves. Data from binding of chaperones to immobilized peptides (Fig. 2a,b and Supplemental Fig. S2a–c) were fit to the equation 1/(1 − i) = (C/i)/Kd^B − b, where i is the relative saturation, C is the chaperone concentration (1 μM), Kd^B is the apparent dissociation constant from the binding data. In the plot of 1/(1 − i) against (C/i), the slope is 1/Kd^B, and −b is the intercept. […] In the plot of bi + (C/Kd^B)/i over D, the slope is 1/Kd^C, and e is the intercept. The amount of chaperone bound in the absence of competitor was set as i = 1.
(§5) Established statistical methods[71]–[73] were used to analyze the data for chaperone binding to the peptide library. First, biological and statistical outliers were identified with the Tukey method in two rounds, for biological and then statistical outliers. […] Binding data were represented as multiples of the standard deviations from the normal means. Binding in the presence of competitor peptides were shown as a fraction of binding in the absence of competitor, or the fraction competed calculated as 1 – fraction bound. Values were compared using a two-tailed unpaired Student’s t-test assuming unequal variance.

HSC70 and DJA2 = experiment: Refolding of guanidine denatured luciferase by HSC70 and DJA2; format: biochemical; details: 4 μM each HSC70 and DJA2, 100 nM luciferase, 100 μM peptide (25-fold excess), 60 min, % of control without peptide; n = 3
Description: Refolding of guanidine denatured luciferase with HSC70 and DJA2 was as described. […] To monitor refolding, luciferase activity was measured in a luminometer (Berthold Sirius) with the luciferase assay kit (Promega). For co-IPs, 20 μL reaction aliquots were stopped by dilution at 4 °C to 500 μL with buffer containing 0.1% Triton X-100, 0.2% BSA and 0.04 mg/mL apyrase (Sigma). Reactions were incubated with FLAG-M2 magnetic beads (Sigma) for 1 h at 4 °C with agitation, then beads were isolated and washed with buffer G containing 0.1% Triton X-100, and eluted with 40 μL of 1 μg/mL FLAG peptide in the same buffer. Samples were analyzed on Western blots detected with antibodies against luciferase (Sigma, L2164) and the FLAG-M2 tag (Sigma, F1804).

DJA2 [2] = target: T2, DJA2 (Homo sapiens, UniProt O60884); experiment: Competition ELISA: soluble peptide vs DJA2 binding to immobilized 1097-L; details: for competition of DJA2 binding to immobilized 1097-L (in words): 1 μM DJA2, soluble peptide up to 100 μM; for DJA2 binding site by competition screen (in words): 1 μM DJA2, 100 μM soluble peptide, Fig. 3c/5, cutoff twice SD of 733-L, n ≥ 4
T2 construct: made in house
Description: as §1, §2, §3, §4, §5

DJA1 [3] = target: T3, DJA1 (Homo sapiens, UniProt P31689); experiment: ELISA binding of DJA1 to immobilized biotinylated CFTR peptides; details: for binding in peptide library screen, DJA1 (in words): 2 μM DJA1, absence of ATP, immobilized 15-mer, n ≥ 3
T3 construct: made in house
Description: as §1, §2, §3, §4, §5

DJA1 [4] = target: T3, DJA1; experiment: Competition ELISA: soluble peptide vs DJA1 binding to immobilized 1097-L; details: for competition of DJA1 binding to immobilized 1097-L (in words): 1 μM DJA1, soluble peptide up to 100 μM
Description: as §1, §2, §3, §4, §5

DJA2 [5] = target: T2, DJA2; experiment: ELISA binding of DJA2 to immobilized biotinylated CFTR peptides; details: for binding in peptide library screen, DJA2 (in words): 2 μM DJA2, absence of ATP, immobilized 15-mer, n ≥ 3
Description: as §1, §2, §3, §4, §5

HSC70 [6] = target: T1, HSC70; experiment: ELISA binding of HSC70 to immobilized biotinylated CFTR peptides; details: for binding in peptide library screen, HSC70 (in words): 2 μM HSC70, with ATP, immobilized 15-mer, n ≥ 3; for HSC70 concentration at which binding reached saturation: titration on immobilized peptide
Description: as §1, §2, §3, §4, §5

T1 sequence (P11142 whole entry): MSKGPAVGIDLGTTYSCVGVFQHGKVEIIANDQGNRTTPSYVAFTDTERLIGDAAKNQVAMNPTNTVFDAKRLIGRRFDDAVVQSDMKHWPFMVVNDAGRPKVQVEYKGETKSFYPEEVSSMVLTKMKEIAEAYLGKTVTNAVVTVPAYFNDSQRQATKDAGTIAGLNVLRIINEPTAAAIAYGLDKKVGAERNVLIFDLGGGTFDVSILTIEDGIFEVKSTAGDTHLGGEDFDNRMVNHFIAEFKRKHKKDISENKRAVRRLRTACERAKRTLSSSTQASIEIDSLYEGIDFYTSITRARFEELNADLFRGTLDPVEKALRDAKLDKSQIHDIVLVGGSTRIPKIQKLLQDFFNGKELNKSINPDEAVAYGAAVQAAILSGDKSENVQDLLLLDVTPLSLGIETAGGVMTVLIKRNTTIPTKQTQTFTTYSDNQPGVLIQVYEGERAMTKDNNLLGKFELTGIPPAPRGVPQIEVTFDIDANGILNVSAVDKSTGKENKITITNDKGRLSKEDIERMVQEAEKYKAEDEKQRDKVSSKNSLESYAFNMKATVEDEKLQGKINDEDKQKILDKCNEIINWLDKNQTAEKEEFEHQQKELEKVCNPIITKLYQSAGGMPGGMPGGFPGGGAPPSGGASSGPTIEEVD
T2 sequence (O60884 whole entry): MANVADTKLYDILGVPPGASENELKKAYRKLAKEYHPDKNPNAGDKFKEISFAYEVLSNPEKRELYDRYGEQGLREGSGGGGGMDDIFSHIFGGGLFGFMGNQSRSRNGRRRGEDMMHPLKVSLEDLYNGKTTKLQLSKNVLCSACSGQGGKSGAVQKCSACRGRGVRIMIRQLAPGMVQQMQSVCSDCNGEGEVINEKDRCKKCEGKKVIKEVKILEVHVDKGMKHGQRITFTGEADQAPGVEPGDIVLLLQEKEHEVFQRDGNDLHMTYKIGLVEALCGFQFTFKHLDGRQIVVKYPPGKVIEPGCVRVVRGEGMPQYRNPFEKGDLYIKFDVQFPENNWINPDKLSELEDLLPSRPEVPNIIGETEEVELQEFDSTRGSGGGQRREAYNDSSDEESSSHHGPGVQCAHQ

SKLFFSWTR [Peptide 17-S]
competition of HSC70 binding to immobilized 1097-L (in words) (HSC70 [1]): competed HSC70 well | effect on luciferase refolding (in words) (HSC70 and DJA2): partial but still significant

FLYLSTLRWFQMRIE [Peptide 1097-L]
competition of DJA2 binding to immobilized 1097-L (in words) (DJA2 [2]): similarly competed | Kd (DJA2 [2]; read-out: Kd from competition curves, DJA2): 0.585 µM | binding in peptide library screen, DJA1 (in words) (DJA1 [3]): most consistently bound by all three chaperones | titration binding / saturation, DJA1 (in words) (DJA1 [3]; DJA1 titrated to 1.5 μM on immobilized peptide, Fig. 2b, S2b, n = 3): at or close to saturation above 1 μM; also recorded: higher than to the other peptides | Kd (DJA1 [3]; immobilized peptide (biotin-GSGS-15-mer), DJA1 titrated in buffer H pH 7.5, no nucleotide, 45 min, room temperature, n = 3, read-out: Kd from binding curves, DJA1): 0.167 µM | competition of HSC70 binding to immobilized 1097-L (in words) (HSC70 [1]): Strong, essentially saturating competition | Kd (HSC70 [1]; read-out: Kd from competition curves, HSC70): 0.602 µM | competition of DJA1 binding to immobilized 1097-L (in words) (DJA1 [4]): similarly competed | Kd (DJA1 [4]; read-out: Kd from competition curves, DJA1): 2.43 µM | binding in peptide library screen, DJA2 (in words) (DJA2 [5]): most consistently bound by all three chaperones | titration binding / saturation, DJA2 (in words) (DJA2 [5]; DJA2 titrated to 1.5 μM on immobilized peptide, Fig. 2b, S2c, n = 3): at or close to saturation above 1 μM; also recorded: higher than to the other peptides | Kd (DJA2 [5]; immobilized peptide (biotin-GSGS-15-mer), DJA2 titrated in buffer H pH 7.5, no nucleotide, 45 min, room temperature, n = 3, read-out: Kd from binding curves, DJA2): 0.075 µM | HSC70 binding in ATP compared with ADP or no nucleotide (HSC70 [6]; 1 μM HSC70, immobilized 1097-L, Fig. S1a, n ≥ 4): somewhat lower than in ADP or the absence of nucleotide | binding in peptide library screen, HSC70 (in words) (HSC70 [6]): most consistently bound by all three chaperones | titration binding / saturation, HSC70 (in words) (HSC70 [6]; HSC70 titrated to 1.5 μM on immobilized peptide, Fig. 2a, S2a, n ≥ 6): higher than to the other peptides | Kd (HSC70 [6]; immobilized peptide (biotin-GSGS-15-mer), HSC70 titrated in buffer G pH 7.5 + 1 mM ATP, 45 min, room temperature, n ≥ 6, read-out: Kd from binding curves, HSC70): 0.058 µM | HSC70 concentration at which binding reached saturation (HSC70 [6]; Fig. 2a, n ≥ 6): around 1 μM | effect on luciferase refolding (in words) (HSC70 and DJA2): blocked refolding entirely

EIFESCVCK [Peptide 589-S, NBD1 9-mer]
DJA2 binding site by competition screen (in words) (DJA2 [2]): DJA2 site

DLYLLDSPF [Peptide 571-S, NBD1 9-mer]
DJA2 binding site by competition screen (in words) (DJA2 [2]): bound only by DJA2 | HSC70 binding site by competition screen (in words) (HSC70 [1]; 1 μM HSC70, 100 μM soluble peptide, Fig. 3c/5, cutoff twice SD of 733-L, n ≥ 4): bound only by DJA2 | DJA1 binding site by competition screen (in words) (DJA1 [4]; 1 μM DJA1, 100 μM soluble peptide, Fig. 3c/5, cutoff twice SD of 733-L, n ≥ 4): bound only by DJA2

FGVIPQKVFIFSGTF [Peptide 1293-L]
competition of DJA2 binding to immobilized 1097-L (in words) (DJA2 [2]): only competed HSC70 | competition of HSC70 binding to immobilized 1097-L (in words) (HSC70 [1]): Strong, essentially saturating competition; also recorded: only competed HSC70 | competition of DJA1 binding to immobilized 1097-L (in words) (DJA1 [4]): only competed HSC70 | HSC70 concentration at which binding reached saturation (HSC70 [6]; Fig. 2a, n ≥ 6): around 1 μM

493-L: NBD1 15-mer 486-500 (GRISFCSQFSWIMPG; UniProt P13569 486-500, looked up, fragment) [Peptide 493-L]
competition of DJA2 binding to immobilized 1097-L (in words) (DJA2 [2]): competed poorly | binding in peptide library screen, DJA1 (in words) (DJA1 [3]): binding by DJA1, HSC70 and DJA2, in the original screen | competition of HSC70 binding to immobilized 1097-L (in words) (HSC70 [1]): competed poorly | competition of DJA1 binding to immobilized 1097-L (in words) (DJA1 [4]): competed poorly | binding in peptide library screen, DJA2 (in words) (DJA2 [5]): binding by DJA1, HSC70 and DJA2, in the original screen | binding in peptide library screen, HSC70 (in words) (HSC70 [6]): binding by DJA1, HSC70 and DJA2, in the original screen

LRWFQMRIE [Peptide 1100-S]
competition of DJA2 binding to immobilized 1097-L (in words) (DJA2 [2]): competed
